The values that follow come from article PMC12990037, “Discovery of Two Structurally Distinct Classes of Inhibitors Targeting the Nuclease MUS81 and Enhancing Efficacy of Chemotherapy in Cancer Cells” (Journal of Medicinal Chemistry, 2026).

SMILES strings stand for the structures.

Assay [1] relates to ALT-positive U2OS cells. Nature of the assay: Detection of TFEs by FISH on metaphase spreads. The note with it: 48 h. It is filed as cell-based. The protocol: (§1) 5 Small-molecule inhibitors of MUS81 mimic the effect of siRNA-mediated MUS81 depletion in cells. (A) U2OS cells were treated with DMSO, MUS81-targeting siRNA, MU262, MU876, or their respective control analogues for 48 h. Cytochalasin B (1.25 μg/mL) was added 16 h before harvest to prevent cytokinesis. […] (B) Representative images corresponding to the selected conditions from (A). (C) U2OS and (D) HeLa cells were incubated with DMSO, the indicated inhibitors, and their respective control analogues for 48 h. Nocodazole (200 ng/mL) was added for 5 h prior to the end of treatment to arrest cells in mitosis. Mitotic cells were collected by shake-off, and telomere fragility events (TFEs) were quantified manually for each metaphase spread. At least 70 metaphase spreads were quantified per condition. n = 3; error bars represent s.d.; ***p < 0.001, ****p < 0.0001 (ordinary One-way ANOVA).
(§2) U2OS and HeLa cells were seeded in 10 cm dishes. The next day, the medium was changed, and compounds were added at desired concentrations. This process was repeated after 43 h except that compounds were added together with 200 ng/mL of nocodazole. Cells were collected 5 h later by shake-off and incubated in 75 mM KCl at 37 °C for 10 min. Chromosomes were fixed in ice-cold methanol/acetic acid (3:1) and spread on glass slides. Slides were then treated with 20 μg/mL RNase A (Sigma-Aldrich), in 1x PBS at 37 °C for 1 h, fixed in 4% formaldehyde (Sigma-Aldrich) in 1x PBS for 2 min, and treated with 70 μg/mL pepsin (Sigma-Aldrich) in 2 mM glycine, pH 2 (Sigma-Aldrich) at 37 °C for 5 min. Slides were fixed again with 4% formaldehyde in 1x PBS for 2 min, incubated subsequently in 70%, 90%, and 100% ethanol for 5 min each, and air-dried. A C-rich telomeric PNA probe (5′-AF568-OO-p4[…]-3′; Panagene) diluted in hybridization solution (10 mM Tris–HCl pH 7.2, 70% formamide, 0.5% blocking solution (Roche)) was applied onto the slides followed by incubation at 80 °C for 5 min and at room temperature for 2 h. Slides were washed twice in 10 mM Tris–HCl pH 7.2, 70% formamide, and 0.1% BSA and three times in 100 mM Tris–HCl pH 7.2, 150 mM NaCl, and 0.08% Tween-20 at room temperature for 10 min each. DNA was counterstained with 100 ng/mL DAPI (Sigma-Aldrich) in 1x PBS and slides were mounted in Vectashield (Vector Labs). Images were acquired with a Zeiss Cell Observer equipped with a cooled Axiocam 506 m camera and a 63X/1.4NA oil DIC M27 PlanApo N objective. Image analysis was performed using ImageJ and Photoshop software (Adobe Inc.).

For assay [2], the system named is HeLa cells. Put plainly: Detection of TFEs by FISH on metaphase spreads. The following applies: 48 h. The class given is cell-based. As for the experimental part: as §1, §2
Assay [3] deals with CAL51 WT cells. Put plainly: Long-term cell survival assay (retreatment twice a week). It is filed as cell-based. The following applies: 1–3 μM, treated twice a week for almost 3 weeks. The protocol: To evaluate the long-term effects of the inhibitors on the cellular viability, we treated cells twice a week for almost 3 weeks with low doses of MU262 and MU876.
CAL51 WT cells were treated with DMSO, MU262 = 18, MU876 = 32, nontargeting siRNA, or siRNA targeting MUS81. Cells were trypsinized, counted, and replated twice a week and retreated with inhibitors or siRNA with every passage. The cell number was plotted at each time point. Data were plotted in Graphpad Prism (GraphPad Software) and a 2-way ANOVA test was used to assess significance.

In assay [4] the target is T1, MUS81–EME1 binding to 3′ flap DNA substrate (Homo sapiens, UniProt Q96NY9).
T1 construct: The MUS81–EME1 full-length expression plasmid was obtained from Stephen C; West; made in house; host or cells: Escherichia coli
T1 sequence (Q96NY9 1-551): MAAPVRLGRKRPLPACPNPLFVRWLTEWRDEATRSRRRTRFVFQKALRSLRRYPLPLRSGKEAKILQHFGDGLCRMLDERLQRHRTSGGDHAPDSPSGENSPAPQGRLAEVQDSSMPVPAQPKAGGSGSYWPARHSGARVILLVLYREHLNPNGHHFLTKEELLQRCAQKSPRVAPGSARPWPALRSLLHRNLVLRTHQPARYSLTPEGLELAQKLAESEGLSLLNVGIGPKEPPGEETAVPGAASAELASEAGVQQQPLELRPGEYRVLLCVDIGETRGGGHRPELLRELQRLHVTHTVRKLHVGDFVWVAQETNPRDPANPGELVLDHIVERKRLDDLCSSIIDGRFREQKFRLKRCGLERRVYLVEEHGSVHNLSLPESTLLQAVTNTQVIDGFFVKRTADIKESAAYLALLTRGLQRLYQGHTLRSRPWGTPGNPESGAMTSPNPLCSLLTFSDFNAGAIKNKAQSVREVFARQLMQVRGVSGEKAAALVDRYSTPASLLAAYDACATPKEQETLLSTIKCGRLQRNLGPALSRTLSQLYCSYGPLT
T1 sequence (Q96AY2 1-570 partner): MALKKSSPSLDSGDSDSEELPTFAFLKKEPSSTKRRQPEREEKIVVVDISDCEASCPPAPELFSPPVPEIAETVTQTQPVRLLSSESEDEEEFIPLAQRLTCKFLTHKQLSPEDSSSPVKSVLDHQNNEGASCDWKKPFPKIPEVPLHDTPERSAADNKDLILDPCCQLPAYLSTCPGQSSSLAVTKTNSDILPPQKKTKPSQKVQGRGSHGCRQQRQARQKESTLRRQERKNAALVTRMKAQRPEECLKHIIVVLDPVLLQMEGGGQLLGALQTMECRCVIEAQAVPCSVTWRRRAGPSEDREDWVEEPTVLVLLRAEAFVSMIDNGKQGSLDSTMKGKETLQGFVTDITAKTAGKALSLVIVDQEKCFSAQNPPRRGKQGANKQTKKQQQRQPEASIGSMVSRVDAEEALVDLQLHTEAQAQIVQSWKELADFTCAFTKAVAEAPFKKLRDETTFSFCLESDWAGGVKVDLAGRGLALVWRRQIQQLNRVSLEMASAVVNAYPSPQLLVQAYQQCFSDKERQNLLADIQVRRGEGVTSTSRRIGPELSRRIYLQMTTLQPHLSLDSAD
Put plainly: Electrophoretic mobility shift assay (EMSA). The note with it: MUS81–EME1 160 nM, no MgCl2. In general terms: In EMSA bound probe runs differently from free probe, usually more slowly.
Protocol: (A,B) Purified MUS81–EME1 (160 nM) was incubated with increasing concentrations of MU262, MU876, or their respective control analogues, followed by the addition of 3 nM fluorescently labeled 3′ flap DNA substrate. MgCl2 was omitted from the reaction buffer to prevent substrate cleavage. The reaction products were resolved on a native PAGE gel. The lower band represents a free DNA substrate, while the upper smear corresponds to the MUS81–DNA complex. n = 3.
Purified MUS81–EME1 (160 nM) was incubated in a modified assay buffer without MgCl2 (50 mM Tris–HCl pH 7.4, 150 mM NaCl, and 0.05% Tween-20) with 15 nM of a 3′flap DNA substrate (listed in Supplementary Table 5) in the absence or presence of selected inhibitors at RT for 10 min, followed by an incubation at 25 °C for 10 min. The reaction was stopped on ice and products were resolved using native PAGE (7.5% acrylamide gel in 0.5% TBE) at 4 °C for 50 min (6.5 V/cm). Gel images were captured using a FLA-9000 (Fujifilm) and Typhoon (Amersham) scanners and quantified with Multi Gauge V3.2 software (Fujifilm).

As for `CCc1nn2c(O)c(-c3nc4ccccc4[nH]3)nnc2c1-c1ccc(F)cc1` [Compound 18, 3-(1H-Benzo[d]imidazole-2-yl)-7-ethyl-8-(4-fluorophenyl)pyrazolo[5,1-c][1,2,4]triazin-4-ol], the “telomere-free ends (TFEs)” value in assay [1] was “significantly increased the presence of telomere-free ends (TFEs)”; in assay [2] it was “but not in telomerase-positive and ALT-negative HeLa cells”. In addition, the long-term viability result in assay [3] was “significant reduction in viability”. Further, the “effect on MUS81–EME1 binding to 3′ flap DNA (EMSA)” value in assay [4] is “neither MU262 nor its inactive analogue MU1066 disrupted the MUS81–DNA interaction”.
Turning to `Cc1cc(=O)[nH]c(-n2nc(-c3ccccc3)cc2NC(=O)c2cc(-c3ccccc3)on2)n1` [Compound 32, N-(1-(4-Methyl-6-oxo-1,6-dihydropyrimidin-2-yl)-3-phenyl-1H-pyrazol-5-yl)-5-phenylisoxazole-3-carboxamide], the “telomere-free ends (TFEs)” value was “significantly increased the presence of telomere-free ends (TFEs)” in assay [1]; “but not in telomerase-positive and ALT-negative HeLa cells” in assay [2].
